In this assay the test system is P388 leukemia ip, CD2F1 mice, survival T/C. Nature of the assay: NCI In Vivo Anticancer Drug Screen. Data for tumor model P388 Leukemia (intraperitoneal) in CD2F1 (CDF1) mice. The following applies: endpoint: median survival time, higher = longer survival. The gist of the method: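 Mice carrying the transplanted tumor received test compound or vehicle. Survival was recorded in each group, and the value is the treated-group measurement divided by that of the vehicle-treated control group.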

The mark [1] stands for this setting: dose: 50.0 mg/kg/injection, schedule: Q01DX009 (ip), vehicle: Klucel (hydroxypropylcellulose) (HPC).
Where [2] appears, read: dose: 100.0 mg/kg/injection, schedule: Q01DX009 (ip), vehicle: Klucel (hydroxypropylcellulose) (HPC).
[3] abbreviates: dose: 200.0 mg/kg/injection, schedule: Q01DX009 (ip), vehicle: Klucel (hydroxypropylcellulose) (HPC).
[4] abbreviates: dose: 6.25 mg/kg/injection, schedule: Q01DX009 (ip), vehicle: saline.
[5] abbreviates: dose: 12.5 mg/kg/injection, schedule: Q01DX009 (ip), vehicle: saline.
The mark [6] stands for this setting: dose: 100.0 mg/kg/injection, schedule: Q01DX001 (ip), vehicle: Klucel (hydroxypropylcellulose) (HPC).
The mark [7] stands for this setting: dose: 400.0 mg/kg/injection, schedule: Q01DX001 (ip), vehicle: Klucel (hydroxypropylcellulose) (HPC).
[8] abbreviates: dose: 100.0 mg/kg/injection, schedule: Q01DX001 (ip), vehicle: saline.
The mark [9] stands for this setting: dose: 50.0 mg/kg/injection, schedule: Q01DX009 (ip), vehicle: saline.
[10] abbreviates: dose: 60.0 mg/kg/injection, schedule: Q01DX005 (ip), vehicle: saline with Tween-80.

Where “and” joins values, the source holds several entries; their conditions need not be identical. Equal values may be shown once. Toxic doses and inconclusive results are not listed.

We go through 22 molecules from PubChem BioAssay AID330 (DTP/NCI, 2004).

As for `c1cc[c]([Sn]([S]C23CC4CC(CC(C4)C2)C3)([c]2ccccc2)[c]2ccccc2)cc1`, the T/C reads like this: (dose: 100.0 mg/kg/injection, schedule: Q04DX003 (ip), vehicle: suspension in saline) 94 % of control; (dose: 200.0 mg/kg/injection, schedule: Q04DX003 (ip), vehicle: suspension in saline) 98 % of control; (dose: 400.0 mg/kg/injection, schedule: Q04DX003 (ip), vehicle: suspension in saline) 93 % of control.

For the molecule `COc1ccc(C(C)=O)cc1CS/C(=N/S(=O)(=O)c1ccccc1)Nc1cccc(Cl)c1Cl`, the T/C under setting [1] is 101 % of control, the T/C under setting [2] is 101 % of control and the T/C under setting [3] is 98 % of control.

For `CCOc1c(N=Nc2ccc(C)cc2)c(C)nn1C(=S)SC`, the T/C is 100 % of control (dose: 60.0 mg/kg/injection, schedule: Q01DX005 (ip), vehicle: Klucel + Tween-80); 94 % of control (dose: 120.0 mg/kg/injection, schedule: Q01DX005 (ip), vehicle: Klucel + Tween-80); 100 % of control (dose: 240.0 mg/kg/injection, schedule: Q01DX005 (ip), vehicle: Klucel + Tween-80).

As to `OCN(CO)c1nc(CCC(Br)(Br)Br)nc(N(CO)CO)n1`, the T/C runs as follows: (dose: 12.5 mg/kg/injection, schedule: Q01DX009 (ip), vehicle: distilled water + Tween-80) 104 % of control; (dose: 25.0 mg/kg/injection, schedule: Q01DX009 (ip), vehicle: distilled water + Tween-80) 98 % of control; (dose: 50.0 mg/kg/injection, schedule: Q01DX009 (ip), vehicle: distilled water + Tween-80) 98 % of control; (dose: 100.0 mg/kg/injection, schedule: Q01DX009 (ip), vehicle: distilled water + Tween-80) 89 % of control; (dose: 200.0 mg/kg/injection, schedule: Q01DX009 (ip), vehicle: distilled water + Tween-80) 98 % of control.

With `CC(=O)OC12CCCCC(CCCC1)O2`, the T/C is 100 % of control (dose: 100.0 mg/kg/injection, schedule: Q04DX003 (ip), vehicle: Klucel (hydroxypropylcellulose) (HPC)); 99 % of control (dose: 200.0 mg/kg/injection, schedule: Q04DX003 (ip), vehicle: Klucel (hydroxypropylcellulose) (HPC)); 100 % of control (dose: 400.0 mg/kg/injection, schedule: Q04DX003 (ip), vehicle: Klucel (hydroxypropylcellulose) (HPC)).

For the molecule `CC1=C(C)SC(=S)NN1`, the T/C reads like this: (dose: 3.12 mg/kg/injection, schedule: Q01DX009 (ip), vehicle: saline) 96 % of control; under setting [4], 100 % of control; under setting [5], 100 % of control.

As for `NC(=O)c1c(N)nn2c(-c3ccccc3)cc(-c3ccccc3)cc12`, the T/C runs as follows: under setting [6], 86 % of control; under setting [7], 94 % of control.

For the molecule `CCOC(=O)C1C(CCC#N)C(=O)CCC1(C#N)c1ccccc1` (stereo not drawn), the T/C was 105 % of control under setting [8]; 100 % of control (dose: 200.0 mg/kg/injection, schedule: Q01DX001 (ip), vehicle: saline); 105 % of control (dose: 400.0 mg/kg/injection, schedule: Q01DX001 (ip), vehicle: saline).

`COc1ccc2nc3c(=O)[nH]c(=O)nc-3n(CC(O)C(O)C(O)CO)c2c1` (stereo not drawn): the T/C (dose: 25.0 mg/kg/injection, schedule: Q01DX001 (ip), vehicle: saline) was 104 % of control; the T/C (dose: 50.0 mg/kg/injection, schedule: Q01DX001 (ip), vehicle: saline) was 104 % of control; the T/C under setting [8] is 107 % of control; the T/C (dose: 100.0 mg/kg/injection, schedule: Q04DX002 (ip), vehicle: saline) is 109 % of control.

Take `CCOC([O-])=N/C(C)=N/[n+]1ccccc1`: the T/C was 104 % of control under setting [9]; 104 % of control (dose: 100.0 mg/kg/injection, schedule: Q01DX009 (ip), vehicle: saline); 98 % of control (dose: 200.0 mg/kg/injection, schedule: Q01DX009 (ip), vehicle: saline).

Consider `C#CCSC1=NS(=O)(=O)c2ccccc21`, for which the T/C is 115 % of control (dose: 7.5 mg/kg/injection, schedule: Q01DX005 (ip), vehicle: saline with Tween-80); 115 % of control (dose: 15.0 mg/kg/injection, schedule: Q01DX005 (ip), vehicle: saline with Tween-80); 98 % of control and 115 % of control (dose: 30.0 mg/kg/injection, schedule: Q01DX005 (ip), vehicle: saline with Tween-80); 106 % of control under setting [10].

In the case of `O=C(NC(=S)c1ccc(Cl)cc1)Nc1ccccc1`, the T/C by setting is: (dose: 25.0 mg/kg/injection, schedule: Q01DX009 (ip), vehicle: saline with Tween-80) 99 % of control; (dose: 50.0 mg/kg/injection, schedule: Q01DX009 (ip), vehicle: saline with Tween-80) 94 % of control; (dose: 100.0 mg/kg/injection, schedule: Q01DX009 (ip), vehicle: saline with Tween-80) 99 % of control.

On to `O=C1CCCN1CC#CCN1CCCC1`, for which the T/C is 97 % of control (dose: 0.79 mg/kg/injection, schedule: Q01DX001 (ip), vehicle: saline); 100 % of control (dose: 0.79 mg/kg/injection, schedule: Q01DX005 (ip), vehicle: saline); 103 % of control (dose: 1.56 mg/kg/injection, schedule: Q01DX001 (ip), vehicle: saline); 97 % of control (dose: 1.56 mg/kg/injection, schedule: Q01DX005 (ip), vehicle: saline); 105 % of control (dose: 3.12 mg/kg/injection, schedule: Q01DX001 (ip), vehicle: saline); 97 % of control (dose: 3.12 mg/kg/injection, schedule: Q01DX005 (ip), vehicle: saline).

In the case of `COC(=O)c1nc(N)nc(C(=O)OC)c1C(=O)c1ccc([N+](=O)[O-])cc1`, the T/C under setting [10] is 105 % of control and the T/C (dose: 120.0 mg/kg/injection, schedule: Q01DX005 (ip), vehicle: saline with Tween-80) is 97 % of control.

Turning to `CSc1cccc(NC(=S)NN/C(=N/S(=O)(=O)c2ccccc2)N2CCCC2)c1`, the T/C is 102 % of control under setting [1], 101 % of control under setting [2] and 99 % of control under setting [3].

`O=C(NCCCCN1CC1)C(=O)NCCCCN1CC1`: the T/C was 120 % of control (dose: 0.78 mg/kg/injection, schedule: Q04DX003 (ip), vehicle: Klucel (hydroxypropylcellulose) (HPC)); 162 % of control (dose: 3.12 mg/kg/injection, schedule: Q04DX003 (ip), vehicle: Klucel (hydroxypropylcellulose) (HPC)); 178 % of control (dose: 6.25 mg/kg/injection, schedule: Q04DX003 (ip), vehicle: Klucel (hydroxypropylcellulose) (HPC)).

In the case of `c1ccc(C2=NCCN=C2c2ccccc2)cc1`, the T/C is 94 % of control under setting [6]; 99 % of control (dose: 200.0 mg/kg/injection, schedule: Q01DX001 (ip), vehicle: Klucel (hydroxypropylcellulose) (HPC)); 93 % of control under setting [7].

Turning to `COc1ccc2ccc(CO)cc2c1OC`, the T/C is, setting by setting: (dose: 25.0 mg/kg/injection, schedule: Q01DX009 (ip), vehicle: other) 98 % of control; (dose: 50.0 mg/kg/injection, schedule: Q01DX009 (ip), vehicle: other) 92 % of control; (dose: 100.0 mg/kg/injection, schedule: Q01DX009 (ip), vehicle: other) 90 % of control; (dose: 200.0 mg/kg/injection, schedule: Q01DX009 (ip), vehicle: other) 99 % of control; (dose: 400.0 mg/kg/injection, schedule: Q01DX009 (ip), vehicle: other) 90 % of control.

On to `O=C1NC(=O)N(C(F)(F)F)C(F)(F)N1C(F)(F)F`, for which the T/C is 107 % of control (dose: 50.0 mg/kg/injection, schedule: Q01DX005 (ip), vehicle: Klucel (hydroxypropylcellulose) (HPC)) and 107 % of control (dose: 100.0 mg/kg/injection, schedule: Q01DX005 (ip), vehicle: Klucel (hydroxypropylcellulose) (HPC)).

For the molecule `CCCCCOc1ccc(C(=O)Oc2ccc(N=Nc3nccs3)cc2)cc1`, the T/C by setting is: (dose: 50.0 mg/kg/injection, schedule: Q01DX005 (ip), vehicle: saline with Tween-80) 98 % of control; (dose: 100.0 mg/kg/injection, schedule: Q01DX005 (ip), vehicle: saline with Tween-80) 101 % of control; (dose: 200.0 mg/kg/injection, schedule: Q01DX005 (ip), vehicle: saline with Tween-80) 96 % of control.

As to `O=C(NCCCN1CCOCC1)Nc1ccc(Cc2ccc(NC(=O)NCCCN3CCOCC3)cc2)cc1`, the T/C runs as follows: under setting [1], 94 % of control; under setting [2], 94 % of control; under setting [3], 94 % of control.

As to `O=C(c1ccccc1)c1ccc[n+](Cc2c(Cl)cccc2Cl)c1`, the T/C is, setting by setting: under setting [4], 101 % of control and 98 % of control; under setting [5], 102 % of control and 105 % of control; (dose: 25.0 mg/kg/injection, schedule: Q01DX009 (ip), vehicle: saline) 105 % of control and 111 % of control and 123 % of control; under setting [9], 108 % of control and 114 % of control and 117 % of control.
